Values of other authors in patent US20240122955A1, “ORAL DELIVERY” (GUANGZHOU DAZHOU BIOMEDICINE LTD., priority 2021, published 2024).

Key:
SGLT2 = biological target: T1, SGLT2 (Homo sapiens, UniProt P31639); conditions: among the three FDA approved drugs canagliflozin, dapagliflozin, empagliflozin
T1 sequence (P31639 1-672): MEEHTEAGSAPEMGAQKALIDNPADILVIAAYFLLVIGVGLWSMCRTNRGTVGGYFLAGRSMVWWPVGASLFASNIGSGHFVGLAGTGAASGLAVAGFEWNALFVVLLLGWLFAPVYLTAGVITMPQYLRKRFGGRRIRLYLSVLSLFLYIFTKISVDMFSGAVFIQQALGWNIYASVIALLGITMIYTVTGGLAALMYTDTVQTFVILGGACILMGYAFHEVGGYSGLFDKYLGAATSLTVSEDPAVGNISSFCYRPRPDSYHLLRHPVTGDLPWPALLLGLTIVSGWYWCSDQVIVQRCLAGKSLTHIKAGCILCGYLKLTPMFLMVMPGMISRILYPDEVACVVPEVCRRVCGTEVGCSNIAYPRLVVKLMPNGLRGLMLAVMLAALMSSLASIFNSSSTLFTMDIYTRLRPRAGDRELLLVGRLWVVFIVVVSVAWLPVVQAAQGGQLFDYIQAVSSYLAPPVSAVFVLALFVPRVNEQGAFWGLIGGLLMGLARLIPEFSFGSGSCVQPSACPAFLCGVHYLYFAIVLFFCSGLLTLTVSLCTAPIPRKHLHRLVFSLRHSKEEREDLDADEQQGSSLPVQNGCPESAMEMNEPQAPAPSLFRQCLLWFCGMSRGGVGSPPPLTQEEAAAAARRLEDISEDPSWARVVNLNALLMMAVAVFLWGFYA

[1] = T2D patients with high risk of cardiovascular disease events, versus the placebo group

Cc1ccc([C@@H]2O[C@H](CO)[C@@H](O)[C@H](O)[C@H]2O)cc1Cc1ccc(-c2ccc(F)cc2)s1 [canagliflozin]
selectivity for SGLT2 compared to SGLT1 (SGLT2): least selective

OCC1O[C@@H](c2ccc(Cl)c(Cc3ccc(O[C@@H]4CCOC4)cc3)c2)C(O)C(O)[C@@H]1O (stereo partly drawn) [empagliflozin]
relative risk reduction in death from cardiovascular causes [1]: 38% | selectivity for SGLT2 compared to SGLT1 (SGLT2): greatest selectivity
